Laboratory results published in patent US8614327B2 (Vertex Pharmaceuticals Incorporated, priority 2004, dated 2013).

Target: T1, ΔF508-CFTR (Homo sapiens, UniProt P13569, DEL508-508)
T1 construct: expressed in transfected cells
Assay: Membrane potential optical (FRET/VIPR) assay, identification of potentiator compounds
Type: cell-based
Settings: Table 3, assay not given; for % Activity: relative efficacy
Summary of the method: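 NIH3T3 mouse fibroblasts stably expressing ΔF508-CFTR, temperature-corrected 24 h at 27° C., read on VIPR by FRET between CC2-DMPE and DiSBAC2(3). Potentiators identified in a double-addition format, first adding chloride-free (gluconate) medium with or without compound.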

T1 sequence (P13569 with tags, fused parts or gaps DEL508-508): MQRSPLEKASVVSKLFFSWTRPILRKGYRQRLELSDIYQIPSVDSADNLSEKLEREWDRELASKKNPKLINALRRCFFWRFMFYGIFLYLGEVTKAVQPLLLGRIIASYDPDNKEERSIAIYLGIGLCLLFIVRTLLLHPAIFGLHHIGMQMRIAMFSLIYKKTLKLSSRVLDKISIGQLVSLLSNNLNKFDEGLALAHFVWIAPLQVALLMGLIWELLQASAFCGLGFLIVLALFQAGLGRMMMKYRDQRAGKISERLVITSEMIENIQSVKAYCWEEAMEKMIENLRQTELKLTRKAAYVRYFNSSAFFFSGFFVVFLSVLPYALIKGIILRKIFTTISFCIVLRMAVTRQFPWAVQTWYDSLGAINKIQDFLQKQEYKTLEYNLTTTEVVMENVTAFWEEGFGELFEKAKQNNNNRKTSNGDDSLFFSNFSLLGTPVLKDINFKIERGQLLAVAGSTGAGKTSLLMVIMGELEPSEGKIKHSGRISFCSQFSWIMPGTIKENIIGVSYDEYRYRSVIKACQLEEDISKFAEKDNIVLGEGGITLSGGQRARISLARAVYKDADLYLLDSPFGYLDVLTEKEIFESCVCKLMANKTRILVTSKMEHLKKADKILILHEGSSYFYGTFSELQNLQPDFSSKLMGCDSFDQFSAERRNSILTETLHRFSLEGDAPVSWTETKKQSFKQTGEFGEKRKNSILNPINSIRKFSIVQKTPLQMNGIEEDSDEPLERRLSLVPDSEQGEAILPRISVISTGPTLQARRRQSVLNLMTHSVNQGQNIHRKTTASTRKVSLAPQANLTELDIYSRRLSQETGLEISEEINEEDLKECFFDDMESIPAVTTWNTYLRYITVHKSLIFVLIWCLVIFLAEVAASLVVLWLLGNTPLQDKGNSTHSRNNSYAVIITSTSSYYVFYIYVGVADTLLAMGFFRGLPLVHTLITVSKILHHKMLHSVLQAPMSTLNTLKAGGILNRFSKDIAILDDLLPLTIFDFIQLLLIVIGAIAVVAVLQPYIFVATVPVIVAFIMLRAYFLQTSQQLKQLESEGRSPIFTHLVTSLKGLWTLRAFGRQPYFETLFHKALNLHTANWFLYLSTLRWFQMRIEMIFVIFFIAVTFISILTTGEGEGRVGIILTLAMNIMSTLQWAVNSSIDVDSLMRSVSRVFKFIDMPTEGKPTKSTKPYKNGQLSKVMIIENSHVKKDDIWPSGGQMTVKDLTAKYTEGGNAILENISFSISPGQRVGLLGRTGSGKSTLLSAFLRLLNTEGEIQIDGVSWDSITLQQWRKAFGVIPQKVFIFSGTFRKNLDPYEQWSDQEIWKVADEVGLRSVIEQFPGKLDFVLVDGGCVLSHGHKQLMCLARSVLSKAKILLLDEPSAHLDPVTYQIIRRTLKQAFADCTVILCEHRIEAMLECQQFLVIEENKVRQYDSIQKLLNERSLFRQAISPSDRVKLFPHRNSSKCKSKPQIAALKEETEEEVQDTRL

Compound	EC50 [µM]	% Activity
O=C(Nc1ccc(OC(F)(F)F)cc1)c1c[nH]c2ccccc2c1=O [Compound 176, 4-oxo-N-[4-(trifluoromethoxy)phenyl]-1H-quinoline-3-carboxamide]	< 10	++ (between 25% to 100%)
CCCCOc1ccccc1NC(=O)c1c[nH]c2ccccc2c1=O [Compound 177, N-(2-butoxyphenyl)-4-oxo-1H-quinoline-3-carboxamide]	< 10	+++ (>100%)
CC(C)(C)c1ccccc1Oc1ccccc1NC(=O)c1c[nH]c2ccccc2c1=O [Compound 178, 4-oxo-N-[2-(2-tert-butylphenoxy)phenyl]-1H-quinoline-3-carboxamide]	< 10	++ (between 25% to 100%)
NC(=O)c1cccc(NC(=O)c2c[nH]c3ccccc3c2=O)c1 [Compound 179, N-(3-carbamoylphenyl)-4-oxo-1H-quinoline-3-carboxamide]	25 to 60	+ (<25%)
CCc1cccc(C)c1NC(=O)c1c[nH]c2ccccc2c1=O [Compound 180, N-(2-ethyl-6-methyl-phenyl)-4-oxo-1H-quinoline-3-carboxamide]	< 10	++ (between 25% to 100%)
Cc1ccc(-c2ccccc2NC(=O)c2c[nH]c3ccccc3c2=O)cc1 [Compound 181, 4-oxo-N-[2-(p-tolyl)phenyl]-1H-quinoline-3-carboxamide]	< 10	++ (between 25% to 100%)
O=C(Nc1ccccc1-c1ccc(F)cc1)c1c[nH]c2ccccc2c1=O [Compound 182, N-[2-(4-fluorophenyl)phenyl]-4-oxo-1H-quinoline-3-carboxamide]	< 10	++ (between 25% to 100%)
CC(C)(C)OC(=O)N1CCCc2ccc(NC(=O)c3c[nH]c4ccccc4c3=O)cc21 [Compound 183, 7-[(4-oxo-1H-quinolin-3-yl)carbonylamino]-1,2,3,4-tetrahydroquinoline-1-carboxylic acid tert-butyl ester]	< 10	++ (between 25% to 100%)
O=C(Nc1ccc2cc[nH]c2c1)c1c(C(F)(F)F)[nH]c2ccccc2c1=O [Compound 184, N-(1H-indol-6-yl)-4-oxo-2-(trifluoromethyl)-1H-quinoline-3-carboxamide]	25 to 60	+ (<25%)
O=C(Nc1cccc(S(=O)(=O)N2CCOCC2)c1)c1c[nH]c2ccccc2c1=O [Compound 185, N-(3-morpholinosulfonylphenyl)-4-oxo-1H-quinoline-3-carboxamide]	25 to 60	+ (<25%)
O=C(Nc1ccc2c(C3CCCC3)c[nH]c2c1)c1c[nH]c2ccccc2c1=O [Compound 186, N-(3-cyclopentyl-1H-indol-6-yl)-4-oxo-1H-quinoline-3-carboxamide]	< 10	++ (between 25% to 100%)
CC(=O)n1ccc2ccc(NC(=O)c3c[nH]c4ccccc4c3=O)cc21 [Compound 187, N-(1-acetyl-1H-indol-6-yl)-4-oxo-1H-quinoline-3-carboxamide]	< 10	++ (between 25% to 100%)
CCOC(=O)c1cc2cc[nH]c2cc1NC(=O)c1c[nH]c2ccccc2c1=O [Compound 188, 6-[(4-oxo-1H-quinolin-3-yl)carbonylamino]-1H-indole-5-carboxylic acid ethyl ester]	< 10	++ (between 25% to 100%)
O=C(Nc1ccc(OCc2ccccc2)cc1)c1c[nH]c2ccccc2c1=O [Compound 189, N-(4-benzyloxyphenyl)-4-oxo-1H-quinoline-3-carboxamide]	< 10	++ (between 25% to 100%)
O=C(Nc1ccccc1-c1ccc(F)c(Cl)c1)c1c[nH]c2ccccc2c1=O [Compound 190, N-[2-(3-chloro-4-fluoro-phenyl)phenyl]-4-oxo-1H-quinoline-3-carboxamide]	< 10	++ (between 25% to 100%)
O=C(Nc1cccc2ncccc12)c1c[nH]c2ccccc2c1=O [Compound 191, 4-oxo-N-(5-quinolyl)-1H-quinoline-3-carboxamide]	25 to 60	+ (<25%)
Cc1cccnc1NC(=O)c1c[nH]c2ccccc2c1=O [Compound 192, N-(3-methyl-2-pyridyl)-4-oxo-1H-quinoline-3-carboxamide]	25 to 60	+ (<25%)
COc1ccc(NC(=O)c2c[nH]c3ccccc3c2=O)c(OC)n1 [Compound 193, N-(2,6-dimethoxy-3-pyridyl)-4-oxo-1H-quinoline-3-carboxamide]	10 to 25	++ (between 25% to 100%)
N#Cc1ccc(NC(=O)c2c[nH]c3ccccc3c2=O)cc1 [Compound 194, N-(4-cyanophenyl)-4-oxo-1H-quinoline-3-carboxamide]	25 to 60	+ (<25%)

Compound	EC50 [µM]	% Activity
Cc1ccc(NC(=O)c2c[nH]c3ccccc3c2=O)nc1 [Compound 195, N-(5-methyl-2-pyridyl)-4-oxo-1H-quinoline-3-carboxamide]	25 to 60	+ (<25%)
CC(C)(C)CC(=O)Nc1ccc(C(C)(C)C)c(NC(=O)c2c[nH]c3ccccc3c2=O)c1 [Compound 196, N-[5-(3,3-dimethylbutanoylamino)-2-tert-butyl-phenyl]-4-oxo-1H-quinoline-3-carboxamide]	< 10	++ (between 25% to 100%)
O=C(Nc1ccc(C(F)(F)F)nc1)c1c[nH]c2ccccc2c1=O [Compound 197, 4-oxo-N-[6-(trifluoromethyl)-3-pyridyl]-1H-quinoline-3-carboxamide]	25 to 60	+ (<25%)
O=C(Nc1ccc(F)cc1)c1c[nH]c2ccccc2c1=O [Compound 198, N-(4-fluorophenyl)-4-oxo-1H-quinoline-3-carboxamide]	< 10	++ (between 25% to 100%)
Cc1ccccc1-c1ccccc1NC(=O)c1c[nH]c2ccccc2c1=O [Compound 199, N-[2-(o-tolyl)phenyl]-4-oxo-1H-quinoline-3-carboxamide]	< 10	++ (between 25% to 100%)
O=C(Nc1ccc2c(c1)C(O)CCC2)c1c[nH]c2ccccc2c1=O (stereo not shown) [Compound 200, 1,4-dihydro-N-(1,2,3,4-tetrahydro-1-hydroxynaphthalen-7-yl)-4-oxoquinoline-3-carboxamide]	10 to 25	++ (between 25% to 100%)
Cc1cccc(NC(=O)c2c[nH]c3ccccc3c2=O)c1C#N [Compound 201, N-(2-cyano-3-methyl-phenyl)-4-oxo-1H-quinoline-3-carboxamide]	10 to 25	+ (<25%)
COc1ccc(Cl)cc1-c1ccccc1NC(=O)c1c[nH]c2ccccc2c1=O [Compound 202, N-[2-(5-chloro-2-methoxy-phenyl)phenyl]-4-oxo-1H-quinoline-3-carboxamide]	< 10	++ (between 25% to 100%)
O=C(Nc1ccc2ccn(Cc3ccccc3)c2c1)c1c[nH]c2ccccc2c1=O [Compound 203, N-(1-benzyl-1H-indol-6-yl)-4-oxo-1H-quinoline-3-carboxamide]	< 10	++ (between 25% to 100%)
CC1(C)CCOc2cc(NC(=O)c3c[nH]c4ccccc4c3=O)ccc21 [Compound 204, N-(4,4-dimethylchroman-7-yl)-4-oxo-1H-quinoline-3-carboxamide]	< 10	++ (between 25% to 100%)
COc1ccc(Oc2ccc(C(F)(F)F)cc2NC(=O)c2c[nH]c3ccccc3c2=O)cc1 [Compound 205, N-[2-(4-methoxyphenoxy)-5-(trifluoromethyl)phenyl]-4-oxo-1H-quinoline-3-carboxamide]	< 10	++ (between 25% to 100%)
Cc1cccc(Oc2ncccc2NC(=O)c2c[nH]c3ccccc3c2=O)c1C [Compound 206, N-[2-(2,3-dimethylphenoxy)-3-pyridyl]-4-oxo-1H-quinoline-3-carboxamide]	< 10	++ (between 25% to 100%)
CCOC(=O)Cc1c[nH]c2cc(NC(=O)c3c[nH]c4ccccc4c3=O)ccc12 [Compound 207, 2-[6-[(4-oxo-1H-quinolin-3-yl)carbonylamino]-1H-indol-3-yl]acetic acid ethyl ester]	< 10	++ (between 25% to 100%)
Cc1cc(C2C3CC4CC(C3)CC2C4)c(O)cc1NC(=O)c1c[nH]c2ccccc2c1=O (stereo not shown) [Compound 208, N-[4-(2-adamantyl)-5-hydroxy-2-methyl-phenyl]-4-oxo-1H-quinoline-3-carboxamide]	< 10	++ (between 25% to 100%)
O=C(Nc1ccc(CO)cc1)c1c[nH]c2ccccc2c1=O [Compound 209, N-[4-(hydroxymethyl)phenyl]-4-oxo-1H-quinoline-3-carboxamide]	10 to 25	++ (between 25% to 100%)
COc1nc2ccccc2c(OC)c1C(=O)Nc1ccccc1-c1ccccc1 [Compound 210, 2,4-dimethoxy-N-(2-phenylphenyl)-quinoline-3-carboxamide]	10 to 25	++ (between 25% to 100%)
COc1ccc(C(C)(C)C)cc1NC(=O)c1c[nH]c2ccccc2c1=O [Compound 211, N-(2-methoxy-5-tert-butyl-phenyl)-4-oxo-1H-quinoline-3-carboxamide]	< 10	++ (between 25% to 100%)
CC1=NN(c2cccc(NC(=O)c3c[nH]c4ccccc4c3=O)c2)C(=O)C1 [Compound 212, N-[3-(3-methyl-5-oxo-1,4-dihydropyrazol-1-yl)phenyl]-4-oxo-1H-quinoline-3-carboxamide]	25 to 60	+ (<25%)
O=C(Nc1ccccc1-c1cc(Cl)ccc1Cl)c1c[nH]c2ccccc2c1=O [Compound 213, N-[2-(2,5-dichlorophenyl)phenyl]-4-oxo-1H-quinoline-3-carboxamide]	< 10	++ (between 25% to 100%)
